Where “and” joins values, the source holds several entries; their conditions need not be identical. Equal entries are not always repeated.
Experiments:
Type in all cases: cell-based
Ole1 = target: T1, Ole1 (Saccharomyces cerevisiae, UniProt P21147); assay: Growth inhibition of yeast strain expressing Ole1 as sole desaturase; conditions: yeast strain expressing Ole1 as sole desaturase
T1 construct: expressed in transfected cells; host or cells: S. cerevisiae ole1Δ strain (W303 pdr1Δ pdr3Δ background), plasmid pRS316 with TDH3 promoter and CYC1 terminator
T1 sequence (P21147 1-510): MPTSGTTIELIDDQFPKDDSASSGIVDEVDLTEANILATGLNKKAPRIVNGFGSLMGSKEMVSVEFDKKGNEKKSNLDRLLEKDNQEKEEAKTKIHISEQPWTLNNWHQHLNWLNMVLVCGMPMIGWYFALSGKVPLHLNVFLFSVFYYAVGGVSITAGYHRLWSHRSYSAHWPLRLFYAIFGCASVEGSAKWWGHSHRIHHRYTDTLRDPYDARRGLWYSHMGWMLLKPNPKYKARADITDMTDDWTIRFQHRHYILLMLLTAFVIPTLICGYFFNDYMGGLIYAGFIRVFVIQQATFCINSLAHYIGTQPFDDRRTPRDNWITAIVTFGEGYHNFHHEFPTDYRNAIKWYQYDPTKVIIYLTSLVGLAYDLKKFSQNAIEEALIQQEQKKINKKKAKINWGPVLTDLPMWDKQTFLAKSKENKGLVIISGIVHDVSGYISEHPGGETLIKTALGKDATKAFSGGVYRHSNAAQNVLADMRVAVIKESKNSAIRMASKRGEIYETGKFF
Protocol: Strain oleΔ (yeast ole1 deletion mutant) was constructed by deleting OLE1 with NAT-MX6 in BY4741, amplifying the deletion cassette from the genomic DNA of the resulting strain with primers flanking the ORF by 1000 bp upstream and downstream, transforming the resulting deletion cassette into W303 pdr1Δ pdr3Δ, and plating transformants on YPD media containing G418 (200 μg/mL) and nourseothricin ([…]) with 0.01% TWEEN®-20 and 0.5 mM oleic and palmitoleic acids.
The coding sequence of yeast OLE1 was also cloned into this plasmid). These clones were then transformed into the ole1Δ strain and plated on CSM-Ura media (CSM lacking uracil) with 2% glucose (w/v) and independent colonies were isolated and amplified.
All compound profiling experiments were performed using the same basic protocol. Different genetic backgrounds (e.g., gene deletions) or conditions (e.g., addition of oleic and palmitoleic acid) were replaced as indicated below.
Yeast were cultured using standard techniques in complete synthetic media (CSM) and yeast nitrogen base supplemented with 2% (w/v) carbon source (glucose, raffinose, or galactose) to regulate the expression of the toxic disease protein. An initial starter culture was inoculated in 3 mL CSM-Glucose media and incubated overnight in a 30° C. shaker incubator (225 rpm). Saturated morning cultures were then diluted 1:20 in fresh CSM-Raffinose media and grown for 6 h to an OD600 (optical density) of ˜0.4-0.8 at 30° C. with shaking.
Compound administration was performed in two separate steps. First, 15 μL of CSM-Galactose (induces expression of toxic protein) was dispensed into clear 384 well assay plates using a MULTIDROP™ Combi reagent dispenser. […] The cultures described above were then diluted to a 2× concentration (0.03 and 0.08 for alpha-synuclein and ApoE, final ODsoo of 0.015 and 0.04) in CSM-Galactose. For wild-type and Ole1/SCD1/SCD5 plasmid-containing strains, the 2× cell density was 0.02. […] For 96-well assays (FIGS. 1A and 1B), compound dilutions in DMSO were generated in 96 well plates and 1 μL was manually pipetted into 96 well clear bottom assay plates.
For experiments using a plasmid-borne copy of Ole1, SCD1, or SCD5 (FIGS. 3B, 6, and 7), media lacking uracil (SX-Ura, where X is glucose, raffinose, or galactose), was used for all steps of the compound profiling protocol to ensure its maintenance throughout the assay.
After yeast delivery, assay plates were incubated under humidified conditions at 30° C. for 24 to 40 h. ApoE4 rescue experiments were stopped at 24 h, aSyn experiments at 40 h, Ole1 at 24 h, and SCD1/SCD5 at 40 h. The growth of yeast was monitored by reading the ODsoo of each well using a microplate reader (Perkin Elmer EnVision™).

SCD5 = target: T2, SCD5 (Homo sapiens, UniProt Q86SK9); assay: Growth inhibition of humanized yeast strain expressing SCD5 as sole desaturase; conditions: humanized yeast strain expressing SCD5
T2 construct: host or cells: S. cerevisiae ole1Δ strain (W303 pdr1Δ pdr3Δ background), plasmid pRS316 with TDH3 promoter and CYC1 terminator
T2 sequence (Q86SK9 1-330): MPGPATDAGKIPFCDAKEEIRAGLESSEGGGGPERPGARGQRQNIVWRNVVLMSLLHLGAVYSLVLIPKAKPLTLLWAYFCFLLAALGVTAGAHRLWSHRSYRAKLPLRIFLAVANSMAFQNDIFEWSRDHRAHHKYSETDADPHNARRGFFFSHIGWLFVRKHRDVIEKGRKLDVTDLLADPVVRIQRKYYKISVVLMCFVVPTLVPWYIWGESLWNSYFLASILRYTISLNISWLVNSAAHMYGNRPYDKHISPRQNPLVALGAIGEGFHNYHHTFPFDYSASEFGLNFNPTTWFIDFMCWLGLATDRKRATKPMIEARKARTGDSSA
Summary of the method: (§1)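 Plasmid-complemented ole1Δ yeast, drug-pump deleted (pdr1Δ pdr3Δ), depend solely on the introduced Ole1, SCD1 or SCD5 desaturase. Compounds are added from DMSO to cells in uracil-free galactose medium, 2× density 0.02, and OD600 is read after 24 h or 40 h respectively.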

SCD1 = target: T3, SCD1 (Homo sapiens, UniProt O00767); assay: Growth inhibition of humanized yeast strain expressing SCD1 as sole desaturase; conditions: humanized yeast strain expressing SCD1
T3 construct: host or cells: S. cerevisiae ole1Δ strain (W303 pdr1Δ pdr3Δ background), plasmid pRS316 with TDH3 promoter and CYC1 terminator
T3 sequence (O00767 1-359): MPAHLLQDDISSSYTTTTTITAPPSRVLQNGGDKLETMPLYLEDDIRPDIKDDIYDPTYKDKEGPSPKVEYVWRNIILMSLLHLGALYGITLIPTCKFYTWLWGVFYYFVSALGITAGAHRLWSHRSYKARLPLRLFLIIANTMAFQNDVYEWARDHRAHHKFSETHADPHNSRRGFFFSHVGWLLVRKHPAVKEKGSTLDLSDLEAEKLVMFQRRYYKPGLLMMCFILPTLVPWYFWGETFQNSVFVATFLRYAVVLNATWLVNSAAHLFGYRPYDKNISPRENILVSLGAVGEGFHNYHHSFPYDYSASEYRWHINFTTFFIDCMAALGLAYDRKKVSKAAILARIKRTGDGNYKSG
Summary of the method: as §1

SMILES	IC50 (Ole1)	OLE1 % Max Inhibition (Ole1)	IC50 (SCD5)	SCD5 % Max Inhibition (SCD5)	IC50 (SCD1)	SCD1 % Max Inhibition (SCD1)
N#CCC1CN(c2noc(C3CCN(C(=O)C4CC(=O)N(c5ccccc5)C4)CC3)n2)C1 (stereo not drawn) [Compound 242]	> 45 µM	95.59%	> 45 µM	79.22%	> 45 µM	101.23%
Cc1nn(C)c2cc(-c3noc(C4CCN(C(=O)c5cc(F)ccc5C(F)(F)F)CC4)n3)ccc12 [Compound 292]	> 45 µM	13.6%	> 45 µM	10.2%		9.5%
COc1ccc(-c2noc(C3CCN(C(=O)CNCc4ccccc4)CC3)n2)cc1OC [Compound 30]	> 45 µM	100.46%	> 45 µM	74.17%	> 45 µM	80.58%
Cc1ccc(N2CC(C(=O)N3CCC(c4nc(-c5ccc6c(C)nn(C)c6c5)no4)CC3)CC2=O)nc1 (stereo not drawn) [Compound 184]	> 45 µM	3.07% and 0.87%	> 45 µM	2.41% and 11.92%	> 45 µM	86.33% and 50.65%
CCN(Cc1nc(-c2ccccc2)no1)C(=O)Cc1cccc2ccccc12 [Compound 156]	37.1 µM	63.63%	> 45 µM	22.37%	> 45 µM	72.58%
Cc1nn(C)c2cc(-c3noc(C4CCN(C(=O)C5CC(=O)N(c6ccccc6C#N)C5)CC4)n3)ccc12 (stereo not drawn) [Compound 170]	40.4 µM	67.97%	> 45 µM	85.13%	> 45 µM	103.19%
Cc1nn(C)c2cc(-c3noc(C4CCN(C(=O)C5CC(=O)N(CC6CC6)C5)CC4)n3)ccc12 (stereo not drawn) [Compound 245]	> 45 µM	95.26%	> 45 µM	66.96%	> 45 µM	77.70%
CC(C)c1cccc(C(=O)N2CCC(c3nc(-c4ccc5cnn(C)c5c4)no3)CC2)c1 [Compound 205]	> 45 µM	94.02%	> 45 µM	1.01%	> 45 µM	31.70%
Cc1nn(C)c2cc(-c3noc(C4CCN(C(=O)C5CNC(=O)C5)CC4)n3)ccc12 (stereo not drawn) [Compound 126]	> 45 µM	73.29%	30 µM	79.08%	> 45 µM	69.80%
CC(C)(C#N)C1CN(c2noc(C3CCN(C(=O)C4CC(=O)N(c5ccccc5)C4)CC3)n2)C1 (stereo not drawn) [Compound 254]	> 45 µM	92.77%	> 45 µM	83.13%	> 45 µM	69.80%
Cc1nn(C)c2cc(-c3noc(N4CCN(C(=O)c5ccccc5Cl)CC4)n3)ccc12 [Compound 262]	> 45 µM	23.99%	> 45 µM	10.38%		41.84%
Cc1nn(C)c2cc(-c3noc(C4CCN(C(=O)COc5ccccc5)CC4)n3)ccc12 [Compound 266]	> 45 µM	7.17%	> 45 µM	9.90%		12.42%
Cn1ncc2c1CN(c1noc(C3CCN(C(=O)C4CC(=O)N(c5ccccc5)C4)CC3)n1)CC2 (stereo not drawn) [Compound 243]	> 45 µM	94.60%	> 45 µM	72.11%	> 45 µM	94.50%
Cc1nn(C)c2cc(-c3noc(C4CCN(C(=O)C5CN(C(=O)c6ccccc6)C5)CC4)n3)ccc12 [Compound 236]	> 45 µM	8.46%	> 45 µM	3.14%	> 45 µM	77.23%
